Activity calls are given as the source filed them. The rule behind the calls is not given here.
Assays:
ASPC1 = assay: Synergistic antiproliferative activity against human ASPC1 cells assessed as combination index upto 20 uM incubated for 72 hrs in presence of MRTX1133; type: functional
[1] = Half life in male ICR mouse at 20 mg/kg, ip measured upto 24 hrs by LC-MS/MS analysis; type: ADME, organism-based; conditions: in vivo
[2] = target: T1, Histone-lysine N-methyltransferase EHMT2 (Homo sapiens) (UniProt Q96KQ7); assay: Inhibition of N-terminal GST tagged human recombinant G9a (785 to 1210 residues) expressed in Escherichia coli using H3(1 to 21)K9me1 and SAM as substrates incubated for 1 hr by HTRF assay
T1 sequence (whole entry): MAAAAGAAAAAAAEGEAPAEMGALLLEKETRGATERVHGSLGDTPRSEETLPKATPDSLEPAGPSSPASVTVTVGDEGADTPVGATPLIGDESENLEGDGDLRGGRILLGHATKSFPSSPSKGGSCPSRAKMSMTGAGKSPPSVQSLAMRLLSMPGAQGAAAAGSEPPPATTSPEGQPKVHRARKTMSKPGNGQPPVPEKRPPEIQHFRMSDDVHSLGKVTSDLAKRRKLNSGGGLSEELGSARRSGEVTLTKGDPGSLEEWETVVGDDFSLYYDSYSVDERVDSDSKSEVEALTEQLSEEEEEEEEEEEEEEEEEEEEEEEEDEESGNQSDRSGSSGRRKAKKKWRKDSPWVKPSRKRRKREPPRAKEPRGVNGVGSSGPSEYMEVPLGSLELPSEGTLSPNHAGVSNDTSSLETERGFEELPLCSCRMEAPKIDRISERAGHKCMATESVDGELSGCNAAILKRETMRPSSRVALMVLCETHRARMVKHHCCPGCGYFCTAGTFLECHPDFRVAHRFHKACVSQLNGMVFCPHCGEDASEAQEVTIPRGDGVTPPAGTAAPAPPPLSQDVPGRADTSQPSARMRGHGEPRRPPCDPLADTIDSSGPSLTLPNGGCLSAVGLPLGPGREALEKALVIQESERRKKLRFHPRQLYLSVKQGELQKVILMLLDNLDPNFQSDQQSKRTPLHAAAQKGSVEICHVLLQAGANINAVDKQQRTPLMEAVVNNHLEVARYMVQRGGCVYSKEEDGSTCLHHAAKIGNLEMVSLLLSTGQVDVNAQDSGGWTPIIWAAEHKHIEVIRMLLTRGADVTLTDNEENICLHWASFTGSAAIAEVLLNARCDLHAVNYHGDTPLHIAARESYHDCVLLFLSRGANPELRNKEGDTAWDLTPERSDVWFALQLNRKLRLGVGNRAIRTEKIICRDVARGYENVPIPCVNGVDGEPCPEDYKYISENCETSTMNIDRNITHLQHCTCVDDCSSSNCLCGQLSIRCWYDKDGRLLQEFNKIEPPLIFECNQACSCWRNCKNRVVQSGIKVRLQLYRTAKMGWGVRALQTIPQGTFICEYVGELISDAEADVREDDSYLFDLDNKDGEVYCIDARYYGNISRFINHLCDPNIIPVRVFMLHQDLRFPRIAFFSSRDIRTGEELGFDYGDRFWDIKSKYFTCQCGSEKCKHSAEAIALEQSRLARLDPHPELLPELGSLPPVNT

[3] = target: T2, Protein cereblon/Histone-lysine N-methyltransferase EHMT2 (Homo sapiens, UniProt Q96KQ7+Q96SW2); assay: PROTAC activity at CRBN/G9a in human PANC-1 cells assessed as downregulation of G9a protein level at 1 uM measured after 8 hrs by quantitative proteomics analysis; type: cell-based
T2 sequence (Q96SW2 whole entry partner, one chain of several): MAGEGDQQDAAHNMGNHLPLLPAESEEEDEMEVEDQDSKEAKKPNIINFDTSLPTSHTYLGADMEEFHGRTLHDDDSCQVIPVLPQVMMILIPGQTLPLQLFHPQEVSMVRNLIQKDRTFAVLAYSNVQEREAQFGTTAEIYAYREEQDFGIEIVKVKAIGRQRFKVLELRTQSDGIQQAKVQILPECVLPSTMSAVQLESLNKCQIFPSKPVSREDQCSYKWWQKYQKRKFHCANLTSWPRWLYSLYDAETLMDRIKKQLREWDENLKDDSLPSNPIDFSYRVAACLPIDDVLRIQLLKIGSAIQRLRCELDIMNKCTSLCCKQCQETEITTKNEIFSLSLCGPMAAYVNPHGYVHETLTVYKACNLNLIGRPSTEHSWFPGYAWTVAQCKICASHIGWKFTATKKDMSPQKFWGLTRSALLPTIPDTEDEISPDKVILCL

PANC-1 [4] = assay: Effect on H3K23me3 level in human PANC-1 cells at 0.04 to 10 uM measured after 24 hrs by Western blot analysis; type: functional, cell-based; conditions: dose 0.04-10 µM
PANC-1 [5] = assay: Effect on H3K36me3 level in human PANC-1 cells at 0.04 to 10 uM measured after 24 hrs by Western blot analysis; type: functional, cell-based; conditions: dose 0.04-10 µM
[6] = target: T2, Protein cereblon/Histone-lysine N-methyltransferase EHMT2; assay: PROTAC activity at CRBN/G9a in human PANC-1 cells assessed as induction of G9a degradation at 1 uM pretreated with thalidomide for 2 hrs followed by compound addition and measured after 8 hrs by Western blot analysis; type: cell-based

Structure (SMILES): COc1cc2c(NC3CCN(CCCC(=O)NCCCCCCCCNc4cccc5c4C(=O)N(C4CCC(=O)NC4=O)C5=O)CC3)nc(C3CCCCC3)nc2cc1OCCCN1CCCC1 (configuration not stated)
- CI (ASPC1): <0.8
- half-life [1]: 4.2 h
- inhibition [2]: Active
- Activity [3]: Active
- Activity (PANC-1 [4]): inactive
- Activity (PANC-1 [5]): inactive
- Activity [6]: inactive
